From DBAASP
≈ marks a conversion by molar mass, not a printed value.

Key:
Assay in all cases: ≥ marks a high value that may be exact or a test limit, other limits are often not marked, values filed in µg/mL are converted to µM
Streptococcus mutans = system: Streptococcus mutans
[1] = system: Klebsiella pneumoniae ATCC 13883
[2] = system: Pseudomonas aeruginosa PAO1
[3] = system: Staphylococcus aureus USA 300
[4] = system: Escherichia coli ATCC 25922
Staphylococcus aureus = system: Staphylococcus aureus
Bacillus subtilis = system: Bacillus subtilis
Escherichia coli B = system: Escherichia coli B
[5] = system: Candida albicans F7-39/IDE99
Pseudomonas aeruginosa = system: Pseudomonas aeruginosa
[6] = system: Candida albicans ATCC 2002
[7] = system: Pseudomonas aeruginosa CMCCB 10104
[8] = system: Staphylococcus aureus ATCC 25923

CC(C)C[C@H](NC(=O)[C@H](C)NC(=O)[C@H](Cc1cnc[nH]1)NC(=O)[C@H](CC(C)C)NC(=O)[C@H](CC(C)C)NC(=O)[C@H](Cc1cnc[nH]1)NC(=O)[C@@H](NC(=O)[C@H](C)N)[C@@H](C)O)C(=O)N[C@@H](CCC(N)=O)C(=O)N[C@@H](CCCN=C(N)N)C(=O)N[C@@H](Cc1ccccc1)C(N)=O [ATHLLHALQRF]
MIC (Streptococcus mutans): ≥ 191 µM

CC(C)C[C@H](NC(=O)[C@H](CC(C)C)NC(=O)CNC(=O)[C@H](CC(C)C)NC(=O)[C@H](CC(C)C)NC(=O)[C@H](CO)NC(=O)[C@H](CC(C)C)NC(=O)[C@H](CC(C)C)NC(=O)[C@H](CO)NC(=O)[C@H](CC(C)C)NC(=O)[C@H](CC(C)C)NC(=O)[C@H](CCCCN)NC(=O)CN)C(N)=O [GKLLSLLSLLGLL]
MIC [1]: 25 µM (≈ 33.5 µg/mL) | MIC [2]: > 25 µM | MIC [3]: 3.1 µM (≈ 4.15 µg/mL) | MIC [4]: > 25 µM

CC(C)C[C@H](NC(=O)[C@H](CC(C)C)NC(=O)[C@H](CCCCN)NC(=O)CNC(=O)[C@H](CC(C)C)NC(=O)[C@H](CC(C)C)NC(=O)[C@H](CO)NC(=O)[C@H](CC(C)C)NC(=O)[C@H](CC(C)C)NC(=O)[C@H](CO)NC(=O)[C@H](C)NC(=O)[C@H](CC(C)C)NC(=O)CN)C(N)=O [GLASLLSLLGKLL]
MIC [1]: 25 µM (≈ 32.4 µg/mL) | MIC [2]: > 25 µM | MIC [3]: 0.78 µM (≈ 1.01 µg/mL) | MIC [4]: > 25 µM

CC(C)C[C@H](NC(=O)[C@H](CC(C)C)NC(=O)[C@H](CCCCN)NC(=O)CNC(=O)[C@H](C)NC(=O)[C@H](CC(C)C)NC(=O)[C@H](CO)NC(=O)[C@H](CC(C)C)NC(=O)[C@H](CC(C)C)NC(=O)[C@H](CO)NC(=O)[C@H](CC(C)C)NC(=O)[C@H](CC(C)C)NC(=O)CN)C(N)=O [GLLSLLSLAGKLL]
MIC [1]: 3.1 µM (≈ 4.02 µg/mL) | MIC [2]: 12.5 µM (≈ 16.2 µg/mL) | MIC [3]: 0.78 µM (≈ 1.01 µg/mL) | MIC [4]: 3.1 µM (≈ 4.02 µg/mL)

CC[C@H](C)[C@H](NC(=O)[C@H](C)NC(=O)[C@H](C)NC(=O)[C@H](CC(C)C)NC(=O)[C@@H](NC(=O)[C@H](CCCCN)NC(=O)[C@H](CCCNC(=N)N)NC(=O)[C@@H]1CCCN1C(=O)[C@H](CC(C)C)NC(=O)CN)[C@@H](C)CC)C(=O)N[C@@H](C)C(=O)N[C@@H](CCCCN)C(=O)N[C@@H](CCCCN)C(=O)N[C@@H](CCCCN)C(=O)NCC(=O)N[C@@H](CCCCN)C(=O)N[C@@H](C)C(=O)N[C@@H](CCCCN)C(=O)NCC(=O)N1CCC[C@H]1C(=O)N[C@@H](CC(C)C)C(=O)N[C@@H](CCCCN)C(=O)N[C@@H](CC(C)C)C(=O)N[C@H](C(=O)N[C@@H](C)C(=O)N[C@@H](CCCCN)C(=O)N[C@@H](C)C(=O)O)C(C)C [GLPRKILAAIAKKKGKAKGPLKLVAKA]
MIC (Staphylococcus aureus): > 100 µM | MIC (Bacillus subtilis): 12 µM (≈ 33.2 µg/mL) | MIC (Escherichia coli B): ≥ 100 µM | MIC [5]: ≥ 100 µM | MIC (Pseudomonas aeruginosa): > 100 µM

CC[C@H](C)[C@@H]1NC(=O)[C@H](C)NC(=O)[C@@H](NC(=O)[C@H](CC(C)C)NC(=O)[C@@H](NC(=O)[C@H](CCCCN)NC(=O)[C@H](CCCN=C(N)N)NC(=O)[C@@H]2CCCN2C(=O)[C@H](CC(C)C)NC(=O)CN)[C@@H](C)CC)CSSC[C@@H](C(=O)N[C@@H](CCCCN)C(=O)NCC(=O)N2CCC[C@H]2C(=O)N[C@@H](CC(C)C)C(=O)N[C@@H](CCCCN)C(=O)N[C@@H](CC(C)C)C(=O)N[C@H](C(=O)N[C@H]2CSSC[C@@H](C(=O)O)NC(=O)[C@H](CCCCN)NC2=O)C(C)C)NC(=O)[C@H](CCCCN)NC(=O)CNC(=O)[C@H](CCCCN)NC(=O)[C@H](CCCCN)NC(=O)[C@H](CCCCN)NC(=O)[C@H](C)NC1=O [GLPRKILCAIAKKKGKCKGPLKLVCKC]
MIC (Staphylococcus aureus): > 100 µM | MIC (Bacillus subtilis): 4 µM (≈ 11.6 µg/mL) | MIC (Escherichia coli B): ≥ 100 µM | MIC [5]: ≥ 100 µM | MIC (Pseudomonas aeruginosa): > 100 µM

CC(C)C[C@H](NC(=O)[C@H](CC(C)C)NC(=O)[C@H](CC(N)=O)NC(=O)[C@H](CCCCN)NC(=O)[C@@H](NC(=O)[C@@H](NC(=O)[C@H](C)NC(=O)[C@H](CC(C)C)NC(=O)[C@@H](NC(=O)CN)C(C)C)[C@@H](C)O)C(C)C)C(=O)N[C@@H](CC(N)=O)C(=O)NCC(=O)N[C@H](C(=O)NCC(=O)N[C@@H](CC(=O)O)C(=O)NCC(=O)N[C@@H](C)C(=O)N[C@@H](C)C(=O)N[C@@H](CCC(N)=O)C(=O)N[C@@H](CO)C(=O)N[C@H](C(=O)N[C@@H](CC(C)C)C(=O)N[C@@H](CCCCN)C(=O)N[C@H](C(=O)N[C@@H](CC(C)C)C(=O)N[C@@H](CO)C(=O)N[C@H]1CSSC[C@@H](C(=O)O)NC(=O)[C@H](CC(=O)O)NC(=O)[C@H](CC(N)=O)NC(=O)[C@H](CO)NC(=O)[C@H](CC(C)C)NC(=O)[C@H](CCCCN)NC1=O)[C@@H](C)O)C(C)C)[C@@H](C)O [GVLATVKNLLNGTGDGAAQSVLKTLSCKLSNDC]
MIC [6]: 1.22 µM (≈ 4 µg/mL) | MIC [7]: 4.8 µM (≈ 15.8 µg/mL) | MIC [8]: 1.22 µM (≈ 4 µg/mL) | MIC [4]: 2.4 µM (≈ 7.9 µg/mL)
